{
  "source": "patent US20110130464A1",
  "about": "“Combination Agent for Improving Carcass Performance in Finishing Pigs” (IGENE BIOTECHNOLOGY, INC., priority 2008, published 2011)",
  "key": {"finishing pigs [1]": {"test_system": "finishing pigs", "assay": "Growth performance and carcass characteristics of finishing pigs fed astaxanthin with or without Paylean", "format": "in vivo", "settings": "for ADFI (Average Daily Feed Intake) / ADG (Average Daily Gain) / F/G (Pounds of feed to gain one pound of weight) / G/F (Reciprocal of F/G): 26 d", "procedure": "Procedures used in the experiment were approved by the Kansas State University (KSU) Animal Care and Use Committee. The project was conducted at the KSU Swine Teaching and Research Farm. Pigs were housed in an environmentally-regulated finishing building with pens over a totally slatted floor that provided approximately 8 ft^2 per pig. Each pen was equipped with a dry, self-feeder and one nipple waterer, providing ad libitum access to feed and water. The facility was a mechanically-ventilated room with a pull-plug, manure storage pit.\nA total of 144 finishing pigs from a single group (72 barrows and 72 gilts) were utilized for the experiments. Pigs were blocked by weight and gender, and allotted to one of 9 dietary treatments for an average period of 27 days pre-harvest. Each pen served as an experimental unit, with 2 pigs/pen and 8 replications to provide 16 pigs per treatment.\nExperimental diets were provided in meal form and astaxanthin (0, 5, 7.5 and 10 ppm) was added to the control diet at the expense of corn starch to achieve the dietary treatments (Table 1). Paylean® was added to the diets indicated to contain 10 ppm.\nPigs were weighed on day 0, 7, 14, 21, and ˜27 to calculate average daily gain, average daily feed intake, and feed efficiency. Upon completion of the collection of growth performance data, all pigs were euthanized and processed for the collection of standard carcass measurements (dressing percentage, 10th rib backfat depth, loin muscle area, etc.).\nData were analyzed as a randomized complete block design using the PROC MIXED procedure of SAS with pen as the experimental unit. Linear and quadratic polynomial contrasts were used to determine the effect of increasing astaxanthin, with and without addition of Paylean®.\nThe source of natural astaxanthin used in this example was the yeast Phaffia rhodozyma which is commercially available under the trade name Aquasta® containing 10000 ppm astaxanthin, by weight."}, "pigs": {"test_system": "pigs", "settings": "Trapp et al. 2002; cited from earlier work"}, "finishing pigs [2]": {"test_system": "finishing pigs", "settings": "Yang et al., cited from earlier work"}, "[3]": {"settings": "10 ppm Paylean, 0 ppm astaxanthin"}, "[4]": {"settings": "5 ppm astaxanthin in diet, without Paylean"}, "[5]": {"settings": "7.5 ppm astaxanthin in diet, without Paylean"}, "[6]": {"settings": "10 ppm astaxanthin in diet, without Paylean"}},
  "note": "Structures can show the parent of a compound that is named as a salt.",
  "data": [
    {"smiles": "CC(CCc1ccc(O)cc1)NCC(O)c1ccc(O)cc1", "note": "(stereo not drawn) [Paylean®, ractopamine hydrochloride, reference compound]", "values": [
      {"measurement": "LEA (loin eye areas), average", "setting": "finishing pigs [1]; 10 ppm Paylean alone", "result": 8.29, "unit": "square inches"},
      {"measurement": "increase of LEA over control pigs", "setting": "finishing pigs [1]; 10 ppm Paylean alone vs control diet without astaxanthin or Paylean", "result": 1.03, "unit": "square inches"},
      {"measurement": "BF-10th rib (Back Fat)", "setting": "finishing pigs [1]; [3]", "result": 0.81, "unit": "in."},
      {"measurement": "BF-avg. (Back Fat)", "setting": "finishing pigs [1]; [3]", "result": 1.06, "unit": "in."},
      {"measurement": "Body weight, Final", "setting": "finishing pigs [1]; [3]", "result": 297.1, "unit": "lb"},
      {"measurement": "Carcass Yield", "setting": "finishing pigs [1]; [3]", "result": 72.0, "unit": "%"},
      {"measurement": "HCW (Hot Carcass Weight)", "setting": "finishing pigs [1]; [3]", "result": 213.9, "unit": "lb"},
      {"measurement": "LEA-10th rib (Loin Eye Area)", "setting": "finishing pigs [1]; [3]", "result": 8.29, "unit": "in^2"},
      {"measurement": "PFFL (Percent Fat Free Lean, SFFL/HCW)", "setting": "finishing pigs [1]; [3]", "result": 53.8, "unit": "%"},
      {"measurement": "SFFL (Standard Fat Free Lean)", "setting": "finishing pigs [1]; [3]", "result": 115.2, "unit": "lb"},
      {"measurement": "SFFL (standard fat free lean)", "setting": "finishing pigs [1]; 10 ppm Paylean, control 108.4 pounds", "result": 115.2, "unit": "pounds"},
      {"measurement": "ADFI (Average Daily Feed Intake)", "setting": "finishing pigs [1]; [3]", "result": 8.05, "unit": "lb"},
      {"measurement": "ADG (Average Daily Gain)", "setting": "finishing pigs [1]; [3]", "result": 2.83, "unit": "lb"},
      {"measurement": "F/G (Pounds of feed to gain one pound of weight)", "setting": "finishing pigs [1]; [3]", "result": 2.86},
      {"measurement": "G/F (Reciprocal of F/G)", "setting": "finishing pigs [1]; [3]", "result": 0.35},
      {"measurement": "hot carcass weight, dressing percent and loin eye area", "setting": "pigs", "result": "increase"}
    ]},
    {"smiles": "CC1=C(/C=C/C(C)=C/C=C/C(C)=C/C=C/C=C(C)/C=C/C=C(C)/C=C/C2=C(C)C(=O)C(O)CC2(C)C)C(C)(C)CC(O)C1=O", "note": "(stereo not drawn) [astaxanthin, 3,3′-dihydroxy-β,β-carotene-4,4′ dione]", "values": [
      {"measurement": "BF-10th rib (Back Fat)", "setting": "finishing pigs [1]; [4]", "result": 0.84, "unit": "in."},
      {"measurement": "BF-avg. (Back Fat)", "setting": "finishing pigs [1]; [4]", "result": 1.12, "unit": "in."},
      {"measurement": "Body weight, Final", "setting": "finishing pigs [1]; [4]", "result": 287.6, "unit": "lb"},
      {"measurement": "Carcass Yield", "setting": "finishing pigs [1]; [4]", "result": 70.4, "unit": "%"},
      {"measurement": "HCW (Hot Carcass Weight)", "setting": "finishing pigs [1]; [4]", "result": 202.6, "unit": "lb"},
      {"measurement": "LEA-10th rib (Loin Eye Area)", "setting": "finishing pigs [1]; [4]", "result": 7.55, "unit": "in^2"},
      {"measurement": "PFFL (Percent Fat Free Lean, SFFL/HCW)", "setting": "finishing pigs [1]; [4]", "result": 52.8, "unit": "%"},
      {"measurement": "SFFL (Standard Fat Free Lean)", "setting": "finishing pigs [1]; [4]", "result": 107.1, "unit": "lb"},
      {"measurement": "LEA (loin eye areas), average", "setting": "finishing pigs [1]; 7.5 ppm astaxanthin alone", "result": 7.36, "unit": "square inches"},
      {"measurement": "increase of LEA over control pigs", "setting": "finishing pigs [1]; 7.5 ppm astaxanthin alone vs diets without astaxanthin", "result": 0.10, "unit": "square inches"},
      {"measurement": "BF-10th rib (Back Fat)", "setting": "finishing pigs [1]; [5]", "result": 0.81, "unit": "in."},
      {"measurement": "BF-avg. (Back Fat)", "setting": "finishing pigs [1]; [5]", "result": 1.02, "unit": "in."},
      {"measurement": "Body weight, Final", "setting": "finishing pigs [1]; [5]", "result": 287.4, "unit": "lb"},
      {"measurement": "Carcass Yield", "setting": "finishing pigs [1]; [5]", "result": 71.5, "unit": "%"},
      {"measurement": "HCW (Hot Carcass Weight)", "setting": "finishing pigs [1]; [5]", "result": 203.4, "unit": "lb"},
      {"measurement": "LEA-10th rib (Loin Eye Area)", "setting": "finishing pigs [1]; [5]", "result": 7.36, "unit": "in^2"},
      {"measurement": "PFFL (Percent Fat Free Lean, SFFL/HCW)", "setting": "finishing pigs [1]; [5]", "result": 52.9, "unit": "%"},
      {"measurement": "SFFL (Standard Fat Free Lean)", "setting": "finishing pigs [1]; [5]", "result": 107.6, "unit": "lb"},
      {"measurement": "BF-10th rib (Back Fat)", "setting": "finishing pigs [1]; [6]", "result": 0.77, "unit": "in."},
      {"measurement": "BF-avg. (Back Fat)", "setting": "finishing pigs [1]; [6]", "result": 1.04, "unit": "in."},
      {"measurement": "Body weight, Final", "setting": "finishing pigs [1]; [6]", "result": 286.2, "unit": "lb"},
      {"measurement": "Carcass Yield", "setting": "finishing pigs [1]; [6]", "result": 70.8, "unit": "%"},
      {"measurement": "HCW (Hot Carcass Weight)", "setting": "finishing pigs [1]; [6]", "result": 202.5, "unit": "lb"},
      {"measurement": "LEA-10th rib (Loin Eye Area)", "setting": "finishing pigs [1]; [6]", "result": 7.53, "unit": "in^2"},
      {"measurement": "PFFL (Percent Fat Free Lean, SFFL/HCW)", "setting": "finishing pigs [1]; [6]", "result": 53.7, "unit": "%"},
      {"measurement": "SFFL (Standard Fat Free Lean)", "setting": "finishing pigs [1]; [6]", "result": 108.6, "unit": "lb"},
      {"measurement": "ADFI (Average Daily Feed Intake)", "setting": "finishing pigs [1]; [4]", "result": 8.06, "unit": "lb"},
      {"measurement": "ADG (Average Daily Gain)", "setting": "finishing pigs [1]; [4]", "result": 2.34, "unit": "lb"},
      {"measurement": "F/G (Pounds of feed to gain one pound of weight)", "setting": "finishing pigs [1]; [4]", "result": 3.44},
      {"measurement": "G/F (Reciprocal of F/G)", "setting": "finishing pigs [1]; [4]", "result": 0.29},
      {"measurement": "ADFI (Average Daily Feed Intake)", "setting": "finishing pigs [1]; [5]", "result": 8.03, "unit": "lb"},
      {"measurement": "ADG (Average Daily Gain)", "setting": "finishing pigs [1]; [5]", "result": 2.45, "unit": "lb"},
      {"measurement": "F/G (Pounds of feed to gain one pound of weight)", "setting": "finishing pigs [1]; [5]", "result": 3.28},
      {"measurement": "G/F (Reciprocal of F/G)", "setting": "finishing pigs [1]; [5]", "result": 0.31},
      {"measurement": "ADFI (Average Daily Feed Intake)", "setting": "finishing pigs [1]; [6]", "result": 8.01, "unit": "lb"},
      {"measurement": "ADG (Average Daily Gain)", "setting": "finishing pigs [1]; [6]", "result": 2.41, "unit": "lb"},
      {"measurement": "F/G (Pounds of feed to gain one pound of weight)", "setting": "finishing pigs [1]; [6]", "result": 3.35},
      {"measurement": "G/F (Reciprocal of F/G)", "setting": "finishing pigs [1]; [6]", "result": 0.30},
      {"measurement": "SFFL versus pigs fed a diet without astaxanthin", "setting": "finishing pigs [1]; astaxanthin alone", "result": "no statistical difference"},
      {"measurement": "production performance", "setting": "finishing pigs [2]; 0, 1.5 and 3.0 ppm astaxanthin in diet of finishing pigs", "result": "no significant effect"},
      {"measurement": "dressing percentage, back fat thickness and loin muscle area", "setting": "finishing pigs [2]; increasing dietary astaxanthin level (0, 1.5, 3.0 ppm)", "result": "linear effect"}
    ]}
  ]
}
